Patent US12208080B2, “Compositions and methods for modulation of extracellular vesicle release and treatment of neurological disorders” (GEORGE MASON RESEARCH FOUNDATION, INC., priority 2018, dated 2025)

Tested on: autophagy proteins (p62, LC3, ATG12-ATG5, ATG12, Beclin-1) in U1 cells
Experiment: Autophagy protein profile, CBD versus autophagy drugs, in U1 cells and their EVs (Western blot)
Assay type: cell-based
Conditions: 5 days, Rapamycin 50 nM, INK128 50 nM
Procedure: FIGS. 18A-18B are gels showing CBD promotes autophagy turnover, resulting in a decrease in extracellular autophagosomal secretion. A) U1 cells (1×10^6) were treated±CBD (10 μM) for the following incubation periods: 0, 6, 24, and 48 hours. Cells were pelleted and lysed, exosomes from supernatants were enriched with NT80/82 beads overnight at 4° C. Samples were run through SDS-PAGE and western blotted for autophagy proteins (p62 and LC3), and Actin. B) U1 cells (1×10^6) were treated±10 μM CBD (every day), Rapamycin (50 nM), INK128 (50 nM), Bafilomycin A1 (50 nM), SB 203580 (20 μM), Wortmannin (2 nM) for a 5-day incubation period. Cells were pelleted and lysed, exosomes from supernatants were enriched using NT80/82 beads overnight at 4° C. Samples were run through SDS-PAGE and western blotted for autophagy proteins (p62, LC3, ATG12-ATG5, ATG12, Beclin-1), and Actin.
FIGS. 21A-21K are graphs showing normalized densitometry analysis of CBD and autophagy drug treatment on HIV-1 infected monocytes. Intracellular (A) p62, (B) LC3 I, (C) LC3 II, (D) ATG12-ATG5 complex, (E) ATG12, and (F) Beclin-1, and extracellular (G) p62, (H) LC3 I, (I) LC3 II, (J) ATG12-ATG5 complex, and (K) Beclin-1 densitometry counts were calculated from the Western blot data in FIG. 5B, normalized to respective intracellular and extracellular Actin levels, and plotted.
To determine the specific points at which CBD inhibits intracellular and extracellular autophagosome formation and secretion, we compared CBD treatment of U1 monocytes with known inhibitors of different points in the autophagy pathway. Cell viability was assessed among a panel of titrated autophagy drugs and the least toxic concentration per drug was utilized (FIG. 20). We treated U1 cells with CBD (10 μM) every day, Rapamycin (50 nM), INK128 (50 nM), Bafilomycin A1 (50 nM), SB 203580 (20 μM), or Wortmannin (2 nM) for 5 days. Our rationale for using these drugs was that they regulate different steps of autophagy including nucleation inhibition by inhibiting MTOR activity (Rapamycin, INK128) or by inhibiting pre-autophagosomal VPS34 complex activity (Wortmannin, SB 203580), and autophagosome-lysosome fusion inhibition (Bafilomycin A1). Therefore, a side-by-side comparison to CBD would potentially allow for a better definition of which step of autophagosome formation is primarily regulated by CBD. U1 cells were treated with the autophagy regulators and harvested along with their corresponding supernatants for further analysis using Western blot against p62, LC3, ATG12-ATG5 complex, free ATG12, Beclin-1, and Actin. Results in FIG. 18B (intracellular proteins, top panel) show autophagy protein profiles associated with the various autophagy regulators. […] The corresponding supernatants were enriched for EVs and also analyzed for the presence of autophagy proteins.

[1] = CBD 10 μM every day, FIG. 18B top panel
[2] = CBD 10 μM, Bafilomycin A1 50 nM, SB 203580 20 μM, Wortmannin 2 nM, lower panel

Question: What does the source list for `C=C(C)[C@@H]1CCC(C)=C[C@H]1c1c(O)cc(CCCCC)cc1O` [CBD, 2-[1R-3-methyl-6R-(1-methylethenyl)-2-cyclohexen-1-yl]-5-pentyl-1,3-benzenediol]?
Answer: intracellular ATG12-ATG5 [1]: low levels; intracellular Beclin-1 [1]: high levels; intracellular LC3 I [1]: low levels; EV-associated LC3 I [2]: reduction; EV-associated p62 [2]: reduction
